Reference: patent publication US20240329050A1, “METHODS OF DETECTING PENTASACCHARIDES AND TREATMENT AND MONITORING OF LYSOSOMAL STORAGE DISEASE” (Washington University, priority 2021, published 2024)
Several values for one entry are separate records, joined by “and”; a condition that tells them apart may be missing. Identical values can stand only once.

Assay: Validation of stability of H3N2b in urine, plasma, CSF, stock solution and standard curve matrix
Type: physicochemical, human
Description: Validation of stability-The long-term storage, freeze/thaw stabilities, and stabilities on the bench-top and in the autosampler were determined at the LQC and HQC concentration levels (n=3). Long-term storage stabilities of […]-80° C. in urine, plasma, CSF were tested. Bench-top stabilities of […] were evaluated in urine at room temperature, in plasma at room temperature, in CSF at room temperature and 4° C. Freeze/thaw stability in urine, plasma, CSF was tested by freezing the samples at -80° C. overnight, followed by thawing to room temperature the next day. This process was repeated three times. […] Stock solution stability was established by quantification of samples from dilution of two stock solutions that were stored at -20° C. and at room temperature on the bench, respectively, to the final solution (10000 ng/mL in water). The stabilities of […] in the matrix of standard curve for urine, plasma, CSF were test after storage at room temperature and at -80° C. […] standard curve was established each time.

CC(=O)N[C@H]1[C@H](O[C@@H]2[C@@H](O[C@@H]3[C@H](O)[C@H](O[C@H]4[C@H](O)[C@@H](NC(C)=O)C(O)O[C@@H]4CO)O[C@H](CO)[C@H]3O)O[C@H](CO)[C@@H](O)[C@@H]2O)O[C@H](CO)[C@@H](O[C@@H]2O[C@H](CO)[C@H](O)[C@H](O)[C@H]2O)[C@@H]1O (stereo partly drawn) [H3N2b, O-β-D-galactopyranosyl-(1→4)-O-(2-acetamido-2-deoxy-β-D-glucopyranosyl)-(1→2)-O-α-D-mannopyranosyl-(1→3)-O-β-D-mannopyranosyl-(1→4)-2-acetamido-2-deoxy-α,β-D-glucopyranose]
Stable after freeze/thaw cycles (CSF): 3 freeze/thaw cycles
Stable for (CSF at 4° C.): 1 days
Stable for (CSF at −80° C.): 125 days
Stable for (CSF, room temperature): 0.083 days
Stable for (matrix of standard curve for urine, plasma, CSF, room temperature): 1 days
Stable after freeze/thaw cycles (plasma): 3 freeze/thaw cycles
Stable for (plasma at −80° C.): 158 days
Stable for (plasma, room temperature): 1 days
Stable for (processed CSF samples at 4° C.): 3 days
Stable for (processed plasma samples at 4° C.): 3 days
Stable for (processed urine samples at 4° C.): 3 days
Stable for (standard curve samples for CSF at −80° C.): 125 days
Stable for (standard curve samples for plasma at −80° C.): 158 days
Stable for (standard curve samples for urine at −80° C.): 194 days
Stable for (stock solution at −20° C.): 232 days and 231 days
Stable for (stock solution, room temperature): 1 days
Stable after freeze/thaw cycles (urine): 3 freeze/thaw cycles
Stable for (urine at −80° C.): 194 days
Stable for (urine, room temperature): 1 days
